{
  "source": "patent US11673865B2",
  "about": "“Cyclooctynes for click chemistry” (Massachusetts Institute of Technology, priority 2021, dated 2023)",
  "format_in_all_cases": "physicochemical",
  "key": {"[1]": {"test": "1,3-dipolar cycloaddition kinetics by HPLC", "settings": "with N-benzylazidoacetamide; CH2Cl2 (FIG. 1)", "method": "(§1) The rates of reaction for the 1,3-dipolar cycloaddition of dipoles N-benzylazidoacetamide and N-benzyldiazoacetamide with compound 3 in both aprotic (CH2Cl2) and protic solvents (MeOH and PBS containing 2% v/v DMSO) were measured. The depletion of compound 3by using HPLC and second-order rate constants were calculated from the slope of a plot of [compound 3]^−1 versus time. As a benchmark, the rate of the reaction of DIBO with each dipole was also measured.\n(§2) Kinetics General Method A. Stock solutions at the specified concentrations in the specified solvents were prepared for each dipole and dipolarophile. Aliquots (0.5 mL) of dipole and dipolarophile were mixed, and reactions were monitored by HPLC with aliquots injected at the timepoints shown in the kinetic traces below. Each reaction was carried out in triplicate. The concentration of remaining dipolarophile was obtained from its corresponding peak in the chromatogram monitored at 280 nm. Second-order rate constants were calculated from the slope of the plot of [dipolarophile]^−1 versus time.\nReaction of N-benzylazidoacetamide with DIBO in CH2Cl2. Kinetics General Method A was followed using stock solutions at 2 mM and resulting in final reaction concentrations of 1 mM N-benzylazidoacetamide and 1 mM DIBO.\nReaction of N-benzylazidoacetamide with compound 3 in CH2Cl2. […]"}, "[2]": {"test": "1,3-dipolar cycloaddition kinetics by HPLC", "method": "as §1, §2\nReaction of N-benzyldiazoacetamide with DIBO in CH2Cl2. Kinetics General Method A was followed using stock solutions at 2 mM and resulting in final reaction concentrations of 1 mM N-benzyldiazoacetamide and 1 mM DIBO.\nReaction of N-benzyldiazoacetamide with compound 3 in CH2Cl2. […]"}, "[3]": {"test": "1,3-dipolar cycloaddition kinetics by HPLC", "settings": "CH2Cl2 (FIG. 1)", "method": "To assess the effect of the putative hydrogen bond, the reactivity of compound 3 and DIBO with ethyl diazoacetate, which lacks a hydrogen bond donor, was tested. The rate constant for the reaction of compound 3 with ethyl diazoacetate was nearly 200-fold lower than that with N-benzylazidoacetamide. This decrease is substantially greater than the 4-fold decrease in rate constant for the reaction of these same dipoles with DIBO (FIG. 1).\nas §2\nReaction of ethyl diazoacetate with compound 3 in CH2Cl2. Kinetics General Method A was followed using stock solutions at 400 μM and resulting in final reaction concentrations of 200 μM ethyl diazoacetate and 200 μM compound 3."}, "[4]": {"test": "1,3-dipolar cycloaddition kinetics by HPLC", "settings": "CH2Cl2, 26° C., triplicate", "method": "as §2\nReaction of 2-Azido-N-methyl-N-(phenylmethyl)acetamide with compound 3 in CH2Cl2. Kinetics General Method A was followed using stock solutions at 80 μM and resulting in final reaction concentrations of 40 μM 2-Azido-N-methyl-N-(phenylmethyl)acetamide and 40 μM compound 3."}, "[5]": {"test": "1,3-dipolar cycloaddition kinetics by HPLC", "settings": "CH2Cl2, 26° C., triplicate", "method": "as §2\nReaction of compound 9 with compound 3 in CH2Cl2. Kinetics General Method A was followed using stock solutions at 80 μM and resulting in final reaction concentrations of 40 μM 2-Diazo-N-methyl-N-(phenylmethyl)acetamide and 40 μM compound 3.", "remark": "listed apart in the source"}, "[6]": {"test": "Cyclooctyne stability in the presence of glutathione", "settings": "25 μM", "method": "The stability of ABC in the presence of biological nucleophiles was determined using a biomimetic concentration of glutathione, which contains amino, carboxyl, and sulfhydryl groups. DIBAC was used as a comparator.\nA solution of compound 3 (25 μM) or DIBAC (25 μM) was prepared in phosphate-buffered saline containing reduced glutathione (1.0 mM), oxidized glutathione (0.2 mM), and DMSO (2% v/v). The solutions were incubated at 37° C. (FIG. 6), and HPLC analyses were carried out every hour to determine the remaining concentration of dipolarophile. Subsequently, plots of In(concentration) versus time were prepared to calculate values of kobs for the degradation. These values were divided by the concentration of reduced glutathione to obtain second-order rate constants for the degradation with respect to reduced glutathione."}},
  "data": [
    {"compound": "Clc1ccc2c(c1)CCc1cccnc1C#C2", "note": "[compound 3, 2-Azabenzo-8-chlorobenzocyclooctyne]", "values": [
      {"measurement": "rate increase relative to DIBO", "setting": "[1]", "result": 30, "unit": "fold"},
      {"measurement": "rate increase of N-benzyl diazoacetamide over N-benzyl azidoacetamide", "setting": "[2]; diazoacetamide over azidoacetamide", "result": "~20", "unit": "fold"},
      {"measurement": "rate increase relative to DIBO", "setting": "[2]; with N-benzyl diazoacetamide, CH2Cl2 (FIG. 1)", "result": "1,200 fold"},
      {"measurement": "decrease in rate constant with ethyl diazoacetate relative to N-benzylazidoacetamide", "setting": "[3]", "result": "~200", "unit": "fold"},
      {"measurement": "second-order rate constant k", "setting": "[4]", "result": 1.0, "unit": "M⁻¹ s⁻¹"},
      {"measurement": "second-order rate constant k", "setting": "[5]", "result": 0.75, "unit": "M⁻¹ s⁻¹"},
      {"measurement": "second-order rate constant of degradation with respect to reduced glutathione", "setting": "[6]", "result": 0.10, "unit": "M⁻¹ s⁻¹"}
    ]},
    {"compound": "dibenzoazacyclooctyne [DIBAC, reference compound]", "values": [
      {"measurement": "second-order rate constant of degradation with respect to reduced glutathione", "setting": "[6]; 1 mM reduced and 0.2 mM oxidized glutathione in PBS containing DMSO (2% v/v), 37° C., HPLC", "result": 0.05, "unit": "M⁻¹ s⁻¹"}
    ]}
  ]
}
